# Measurements: BindingDB's records for doi:10.1073/pnas.0511292103 (Genomics Institute of The Novartis Research Foundation, 2006)
# Target: T1, Ret proto-oncogene (Homo sapiens, UniProt Q9UE13)
# T1 sequence (Q9UE13 whole entry): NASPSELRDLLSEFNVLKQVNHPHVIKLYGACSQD
row,Ki [µM],Compound
1,> 10,Cc1ccc(NC(=O)c2ccc(CN3CCN(C)CC3)cc2)cc1Nc1nccc(-c2cccnc2)n1
2,8.68,Cc1cn(-c2cc(NC(=O)c3ccc(C)c(Nc4nccc(-c5cccnc5)n4)c3)cc(C(F)(F)F)c2)cn1 [AMN 107]
